Laboratory results reported in BigSolDB 2.1.

Cc1cc(N)n(-c2ccccc2)n1
solubility (mole fraction)
Conditions	in 2-butanone	in acetonitrile	in ethanol	in isopropanol	in methanol	in n-propanol
283.15 K	0.0482	0.124	0.0766	0.056	0.0852	0.0705
285.65 K	0.0511	0.13	0.0811	0.0593	0.089	0.0749
288.15 K	0.0546	0.137	0.0854	0.0632	0.0938	0.0795
290.65 K	0.0581	0.144	0.0903	0.0672	0.0988	0.0839
293.15 K	0.0618	0.15	0.0955	0.0711	0.104	0.0889
295.65 K	0.0653	0.157	0.101	0.0755	0.109	0.0946
298.15 K	0.0694	0.164	0.107	0.0802	0.115	0.0997
300.65 K	0.0736	0.172	0.113	0.0851	0.121	0.105
303.15 K	0.0784	0.18	0.119	0.0906	0.127	0.112
305.65 K	0.0829	0.189	0.126	0.0957	0.134	0.118
308.15 K	0.0881	0.198	0.132	0.102	0.14	0.125
310.65 K	0.0931	0.206	0.139	0.108	0.147	0.132
313.15 K	0.0989	0.216	0.147	0.114	0.154	0.139
315.65 K	0.105	0.226	0.154	0.121	0.162	0.147
318.15 K	0.111	0.236	0.163	0.129	0.171	0.155
